Experimental data from patent US6720184B1, “Method of altering sphingolipid metabolism and detecting fumonisin ingestion and contamination” (Emory University, priority 1991, dated 2004).
Like-named read-outs stand apart in the source and are kept apart here.

What was measured:
rat hepatocytes [1] = assay: radiolabelling of phospholipids from [14C]serine in hepatocytes; format: cell-based; details: 16 h with [14C]serine
Experimental: Other methods—The incorporation of radiolabel into other lipids was determined by separating the phospholipids by TLC using silica gel H plates developed with CHCl,:methanol:formic acid:water (56:30:2:1, v/v/v/v), visualization of the spots and standards with I2 vapor, and quantitation by scintillation counting. The amount of label in fatty acids was estimated using samples that had been incubated with 0.1 M KOH in methanol for 1 h at 37° C. and separated using the ceramide TLC system because the methyl esters migrate near the solvent front under these conditions.

serum sphingolipids = assay: long-chain bases liberated from total serum lipids by acid hydrolysis, ponies fed fumonisin; format: in vivo, pony
Source text: (§1) Feeding protocols—Clinically normal ponies of varying age and sex were conditioned on the control diet for 21 days prior to the trial. Horse 341 was a 6 year old gelding (173-193 Kg), 299 was a 12 year old mare (205-215 Kg), 164 was a 12 year old mare (206-290 Kg) and 166 was a 16 year old mare (143-164 Kg). During the conditioning period and throughout the trial, all ponies received alfalfa hay by free choice. The test groups were fed varying levels of fumonisin (15 to 44 ppm) for varying lengths of time.
Analysis of serum long-chain bases—Blood was drawn approximately twice a week, centrifuged to obtain serum, and aliquots were frozen for analyses of free sphingosine and sphinganine by HPLC as is known in the art as described in (28). To quantitate total sphingolipids in some samples, the extracts were acid hydrolyzed before preparing the samples for HPLC.

[2] = Source text: as §1
Clinical chemistry, evaluation, and tissue collection—The following clinical chemistry parameters were also analyzed with blood: total bilirubin, direct bilirubin, urea nitrogen, alkaline phosphatase, AST/SGOT, creatine kinase, gamma glutamyl transaminase, and bile acids. The animals were observed intermittently through ut each day and behavior changes were noted. Animals that were euthanized or died underwent a routine necropsy, and brain, liver, and kidney were prepared for microscopic study.

rat hepatocytes [3] = assay: mass measurements of phospholipids, total sphingolipids and free long-chain bases in hepatocytes; format: cell-based; details: for Mass Phosphatidylcholine / Mass Phosphatidylethanolamine / Mass Phosphatidylserine / Mass Total sphingolipids: 16 h
Experimental: Mass measurements of the long-chain bases were conducted by HPLC, as is known in the art as previously described in (28), with C20-sphinganine as an internal standard. To quantitate total sphingolipids, the extracts were acid hydrolyzed before preparing the samples for HPLC and corrected, if necessary, for any losses during hydrolysis or extraction by spiking replicate samples with a known amount of ceramide or sphingomyelin.

[4] = tested on: serine palmitoyltransferase; assay: in vitro assay of serine palmitoyltransferase, rat liver microsomes; format: biochemical
Experimental: In vitro assays of serine palmitoyltransferase and ceramide synthase. A microsomal fraction was isolated from rat liver and assayed for serine palmitoyltransferase, as is known in the art as described in (24,29), and ceramide synthase, as is known in the art as described in (30), in the presence of varying concentrations of fumonisin B1. […] The reaction was initiated by adding palmitoyl-CoA and, after incubation at 37° C. for 15 min, the products were extracted, resolved by TLC, and quantitated as described above. Background counts were subtracted using data from identical assays that omitted palmitoyl-CoA.

[5] = Pony 208, fumonisin feed (level not given), day 2
[6] = Pony 208, fumonisin feed (level not given), day 6
[7] = Pony 208, fumonisin feed (level not given), day 10
[8] = Pony 208, fumonisin feed (level not given), day 13

## CCCC[C@@H](C)[C@@H](OC(=O)C[C@@H](CC(=O)O)C(=O)O)[C@H](C[C@@H](C)C[C@H](O)CCCC[C@@H](O)C[C@H](O)[C@H](C)N)OC(=O)C[C@@H](CC(=O)O)C(=O)O [fumonisin B1]
Rat hepatocytes [1]; 1 μM
  Radiolabelling Phosphatidylcholine: 2640 ± 264 cm/mg protein × 10^−3
  Radiolabelling Phosphatidylethanolamine: 163 ± 4.4 cm/mg protein × 10^−3
  Radiolabelling Phosphatidylserine: 48.8 ± 2.9 cm/mg protein × 10^−3
Rat hepatocytes [1]; 10 μM
  Radiolabelling Phosphatidylcholine: 2740 ± 196 cm/mg protein × 10^−3
  Radiolabelling Phosphatidylethanolamine: 153 ± 10 cm/mg protein × 10^−3
  Radiolabelling Phosphatidylserine: 52.3 ± 3.6 cm/mg protein × 10^−3
Serum sphingolipids; Pony 164, feed 44 ppm, day 2
  Sphinganine Total (acid hydrolysis of serum lipids): 169 ± 30 pmol/mL
  Sphinganine Total (−free): 99 pmol/mL
  Sphingosine Total (acid hydrolysis of serum lipids): 621 ± 99 pmol/mL
  Sphingosine Total (−free): 504 pmol/mL
Serum sphingolipids; Pony 164, feed 44 ppm, day 7
  Sphinganine Total (acid hydrolysis of serum lipids): 156 pmol/mL
  Sphinganine Total (−free): 0 pmol/mL
  Sphingosine Total (acid hydrolysis of serum lipids): 254 ± 32 pmol/mL
  Sphingosine Total (−free): 102 pmol/mL
Serum sphingolipids; Pony 164, feed 44 ppm, day 10
  Sphinganine Total (acid hydrolysis of serum lipids): 786 ± 234 pmol/mL
  Sphinganine Total (−free): 503 pmol/mL
  Sphingosine Total (acid hydrolysis of serum lipids): 2960 ± 585 pmol/mL
  Sphingosine Total (−free): 2740 pmol/mL
Serum sphingolipids; Pony 166, feed 44 ppm, day 2
  Sphinganine Total (acid hydrolysis of serum lipids): 131 ± 40 pmol/mL
  Sphinganine Total (−free): 94 pmol/mL
  Sphingosine Total (acid hydrolysis of serum lipids): 1020 ± 313 pmol/mL
  Sphingosine Total (−free): 974 pmol/mL
Serum sphingolipids; Pony 166, feed 44 ppm, day 7
  Sphinganine Total (acid hydrolysis of serum lipids): 206 ± 18 pmol/mL
  Sphinganine Total (−free): 144 pmol/mL
  Sphingosine Total (acid hydrolysis of serum lipids): 950 ± 154 pmol/mL
  Sphingosine Total (−free): 985 pmol/mL
Serum sphingolipids; Pony 166, feed 44 ppm, day 10
  Sphinganine Total (acid hydrolysis of serum lipids): 212 ± 28 pmol/mL
  Sphinganine Total (−free): 34 pmol/mL
  Sphingosine Total (acid hydrolysis of serum lipids): 634 ± 192 pmol/mL
  Sphingosine Total (−free): 540 pmol/mL
Serum sphingolipids; Pony 166, feed 44 ppm, day 13
  Sphinganine Total (acid hydrolysis of serum lipids): 823 ± 54 pmol/mL
  Sphinganine Total (−free): 650 pmol/mL
  Sphingosine Total (acid hydrolysis of serum lipids): 1740 ± 150 pmol/mL
  Sphingosine Total (−free): 1640 pmol/mL
Serum sphingolipids; [5]
  Sphinganine Total (acid hydrolysis of serum lipids): 387 ± 26 pmol/mL
  Sphinganine Total (−free): 107 pmol/mL
  Sphingosine Total (acid hydrolysis of serum lipids): 3490 ± 358 pmol/mL
  Sphingosine Total (−free): 3190 pmol/mL
Serum sphingolipids; [6]
  Sphinganine Total (acid hydrolysis of serum lipids): 718 ± 75 pmol/mL
  Sphinganine Total (−free): 60 pmol/mL
  Sphingosine Total (acid hydrolysis of serum lipids): 2390 ± 388 pmol/mL
  Sphingosine Total (−free): 2030 pmol/mL
Serum sphingolipids; [7]
  Sphinganine Total (acid hydrolysis of serum lipids): 2040 ± 70 pmol/mL
  Sphinganine Total (−free): 200 pmol/mL
  Sphingosine Total (acid hydrolysis of serum lipids): 4450 ± 10 pmol/mL
  Sphingosine Total (−free): 3460 pmol/mL
Serum sphingolipids; [8]
  Sphinganine Total (acid hydrolysis of serum lipids): 9990 ± 379 pmol/mL
  Sphinganine Total (−free): 9604 pmol/mL
  Sphingosine Total (acid hydrolysis of serum lipids): 15970 ± 1576 pmol/mL
  Sphingosine Total (−free): 15040 pmol/mL
[2]; [5]
  AST/SGDT: 344 units
[2]; [6]
  AST/SGDT: 2130 units
[2]; [7]
  AST/SGDT: 1240 units
[2]; [8]
  AST/SGDT: 1010 units
[2]; Pony #164, feed 44 ppm, day 2
  AST/SGDT: 235 Units
[2]; Pony #164, feed 44 ppm, day 7
  AST/SGDT: 357 Units
[2]; Pony #164, feed 44 ppm, day 10
  AST/SGDT: 4000 Units
  clinical signs: ^1Pony was described as nervous and off feed from day 5; by day 9 was blind and down, and on day 10 had full clinical signs of ELEM and died that evening.
[2]; Pony #166, feed 44 ppm, after being put back on full feed
  clinical signs: ^2Pony was described as lethargic from day 5; off feed from day 8; later put back on full feed and exhibited CNS signs; was euthanized on day 45.
[2]; Pony #166, feed 44 ppm, day 2
  AST/SGDT: 199 Units
[2]; Pony #166, feed 44 ppm, day 7
  AST/SGDT: 215 Units
[2]; Pony #166, feed 44 ppm, day 10
  AST/SGDT: 1470 Units
[2]; Pony #166, feed 44 ppm, day 13
  AST/SGDT: 2080 Units
[2]; ponies 164 and 166, feed 44 ppm
  clinical outcome: resulted in ELEM
[2]; pony 164, feed 44 ppm
  time of death: 10 days
[2]; pony 166, 44 ppm, day 10
  elevation in AST/SGOT: 7 fold
[2]; pony 166, feed 44 ppm
  day of euthanasia: 45 days
[2]; pony 341, 15 then 22 ppm, day 235
  clinical outcome: died with the symptoms of equine leucoencephalomalacia
[2]; pony 341, 15 then 22 ppm, until between day 224 and 231
  serum AST/SGOT activities: essentially unaffected
Rat hepatocytes [3]; 1 μM
  Mass Phosphatidylcholine: 105 ± 1.8 nmol/mg protein
  Mass Phosphatidylethanolamine: 44.9 ± 1.4 nmol/mg protein
  Mass Phosphatidylserine: 15.5 ± 2.6 nmol/mg protein
  Mass Total sphingolipids: 6.7 ± 0.3 nmol/mg protein
Rat hepatocytes [3]; 1 μM, 4 d
  fold increase of sphinganine versus control: 110 fold
  free sphingosine: 52±1 pmol/dish
  mass of free sphinganine: 1499±18 pmol/dish
Rat hepatocytes [3]; 1 μM, 4 d, cells on Matrigel
  level of total sphingolipids: 2.1±0.1 nmol/dish
  reduction of level of total sphingolipids: about half
Rat hepatocytes [3]; 10 μM
  Mass Phosphatidylcholine: 112 ± 3.4 nmol/mg protein
  Mass Phosphatidylethanolamine: 44.4 ± 0.9 nmol/mg protein
  Mass Phosphatidylserine: 12.3 ± 1.9 nmol/mg protein
  Mass Total sphingolipids: 6.5 ± 0.7 nmol/mg protein
Rat hepatocytes [3]; within the first 2 h (FIG. 4B)
  amount of free sphingosine: only a small reduction
[4]; 25 μM
  effect on activity of serine palmitoyltransferase in vitro: did not reduce
[4]; in the presence of 25 μM
  activity of serine palmitoyltransferase in vitro: 88±3 pmol 3-ketosphinganine formed/min/mg of microsomal protein
